# Assay results: ChEMBL document CHEMBL3045195, “Comparison of the activity of non-steroidal ecdysone agonists between dipteran and lepidopteran insects, using cell-based EcR reporter assays” (Pest Manag Sci, 2010)
# The source made the active and inactive calls. The rule behind the calls is not given here.
# Key:
# [1] = target: T1, Ecdysone receptor (Drosophila melanogaster) (UniProt P34021+P20153); assay: Agonist activity at ecdysone receptor in Drosophila melanogaster S2 cells at 100 uM after 24 hr by luciferase reporter gene assay relative to 20-hydroxyecdysone; assay type: cell-based
# Ecdysone receptor [2] = target: T2, Ecdysone receptor (Drosophila melanogaster, UniProt P20153+P34021); assay: Agonist activity at ecdysone receptor in Drosophila melanogaster S2 cells after 24 hr by luciferase reporter gene assay; assay type: cell-based
# T2 sequence (P34021 whole entry): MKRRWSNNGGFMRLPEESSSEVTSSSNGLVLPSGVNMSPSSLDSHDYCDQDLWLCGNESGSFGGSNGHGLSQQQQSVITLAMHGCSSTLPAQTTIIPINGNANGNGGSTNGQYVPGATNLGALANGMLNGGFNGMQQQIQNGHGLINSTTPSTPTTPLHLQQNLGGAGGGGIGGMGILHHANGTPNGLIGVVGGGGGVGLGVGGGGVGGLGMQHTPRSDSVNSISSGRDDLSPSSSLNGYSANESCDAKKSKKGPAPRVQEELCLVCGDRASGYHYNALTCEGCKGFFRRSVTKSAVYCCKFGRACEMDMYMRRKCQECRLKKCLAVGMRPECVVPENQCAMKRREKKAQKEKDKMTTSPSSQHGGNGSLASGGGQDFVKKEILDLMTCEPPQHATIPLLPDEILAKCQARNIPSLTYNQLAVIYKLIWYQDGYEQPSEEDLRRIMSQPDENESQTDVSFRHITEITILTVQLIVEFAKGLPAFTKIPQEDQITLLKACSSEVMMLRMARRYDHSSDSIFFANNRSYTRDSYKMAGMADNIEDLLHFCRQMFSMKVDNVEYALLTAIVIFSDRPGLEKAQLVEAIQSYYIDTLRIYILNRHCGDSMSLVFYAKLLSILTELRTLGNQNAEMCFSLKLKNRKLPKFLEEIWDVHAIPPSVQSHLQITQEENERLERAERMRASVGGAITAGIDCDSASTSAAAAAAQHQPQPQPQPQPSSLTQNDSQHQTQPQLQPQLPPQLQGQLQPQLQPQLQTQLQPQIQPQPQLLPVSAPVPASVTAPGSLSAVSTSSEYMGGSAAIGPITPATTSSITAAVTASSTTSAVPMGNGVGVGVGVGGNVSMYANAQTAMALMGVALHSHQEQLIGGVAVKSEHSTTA
# T2 sequence (P20153 whole entry): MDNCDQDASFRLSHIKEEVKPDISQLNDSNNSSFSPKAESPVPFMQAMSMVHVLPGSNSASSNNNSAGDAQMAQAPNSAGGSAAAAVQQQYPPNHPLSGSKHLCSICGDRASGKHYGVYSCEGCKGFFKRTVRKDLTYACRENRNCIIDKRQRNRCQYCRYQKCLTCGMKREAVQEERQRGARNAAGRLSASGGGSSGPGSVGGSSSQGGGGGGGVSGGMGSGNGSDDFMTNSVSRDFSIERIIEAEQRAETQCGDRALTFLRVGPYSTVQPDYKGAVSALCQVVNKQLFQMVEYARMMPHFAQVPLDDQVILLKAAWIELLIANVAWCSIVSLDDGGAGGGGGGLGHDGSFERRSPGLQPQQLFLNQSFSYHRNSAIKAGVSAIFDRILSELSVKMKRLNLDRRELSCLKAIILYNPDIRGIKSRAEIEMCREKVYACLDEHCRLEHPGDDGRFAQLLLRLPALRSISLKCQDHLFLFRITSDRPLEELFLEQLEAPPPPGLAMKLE
# [3] = Cytotoxicity against Drosophila melanogaster S2 cells at 10 to 100 uM after 24 hr by CellTiter assay; assay type: cell-based; settings: s2, 24 h
# Ecdysone receptor [4] = target: T3, Ecdysone receptor (Bombyx mori, UniProt P49881); assay: (§1) Agonist activity at ecdysone receptor in Bombyx mori Bm5 cells after 24 hr by luciferase reporter gene assay; assay type: cell-based
# T3 sequence (P49881 whole entry): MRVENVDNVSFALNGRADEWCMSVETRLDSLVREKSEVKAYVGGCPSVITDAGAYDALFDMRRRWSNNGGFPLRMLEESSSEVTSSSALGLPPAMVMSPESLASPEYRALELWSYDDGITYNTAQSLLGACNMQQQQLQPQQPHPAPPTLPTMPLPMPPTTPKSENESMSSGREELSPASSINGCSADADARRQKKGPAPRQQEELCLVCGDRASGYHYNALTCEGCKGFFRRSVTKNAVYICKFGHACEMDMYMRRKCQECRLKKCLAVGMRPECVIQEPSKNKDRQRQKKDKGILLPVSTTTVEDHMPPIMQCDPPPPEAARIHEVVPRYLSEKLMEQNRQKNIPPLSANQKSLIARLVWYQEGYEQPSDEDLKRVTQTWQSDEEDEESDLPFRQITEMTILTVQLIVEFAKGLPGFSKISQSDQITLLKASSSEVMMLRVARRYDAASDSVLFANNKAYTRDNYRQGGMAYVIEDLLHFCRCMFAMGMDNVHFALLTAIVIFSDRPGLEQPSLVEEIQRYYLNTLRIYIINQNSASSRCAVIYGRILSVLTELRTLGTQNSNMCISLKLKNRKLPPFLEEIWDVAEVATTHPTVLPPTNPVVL
# [5] = target: T1, Ecdysone receptor (Drosophila melanogaster); assay: Agonist activity at ecdysone receptor in Drosophila melanogaster S2 cells at 5 uM after 24 hr by luciferase reporter gene assay relative to 20-hydroxyecdysone; assay type: cell-based
# [6] = target: T1, Ecdysone receptor (Drosophila melanogaster); assay: Agonist activity at ecdysone receptor in Drosophila melanogaster Kc cells at 10 uM after 24 hr by luciferase reporter gene assay relative to 20-hydroxyecdysone
# Ecdysone receptor [7] = target: T2, Ecdysone receptor; assay: (§2) Agonist activity at ecdysone receptor in Drosophila melanogaster Kc cells after 24 hr by luciferase reporter gene assay
# [8] = target: T1, Ecdysone receptor (Drosophila melanogaster); assay: Agonist activity at ecdysone receptor in Drosophila melanogaster S2 cells at 10 uM after 24 hr by luciferase reporter gene assay relative to 20-hydroxyecdysone; assay type: cell-based
# [9] = target: Ecdysone receptor (Aedes aegypti) (UniProt P49880+Q9GSG8); assay: Agonist activity at Aedes aegypti ecdysone receptor expressed in mammalian cells by reporter gene assay relative to control; assay type: cell-based
# Ecdysone receptor [10] = target: T4, Ecdysone receptor (Aedes aegypti, UniProt P49880+Q9GSG8); assay: Agonist activity at Aedes aegypti ecdysone receptor expressed in mammalian cells by reporter gene assay; assay type: cell-based
# T4 sequence (P49880 whole entry): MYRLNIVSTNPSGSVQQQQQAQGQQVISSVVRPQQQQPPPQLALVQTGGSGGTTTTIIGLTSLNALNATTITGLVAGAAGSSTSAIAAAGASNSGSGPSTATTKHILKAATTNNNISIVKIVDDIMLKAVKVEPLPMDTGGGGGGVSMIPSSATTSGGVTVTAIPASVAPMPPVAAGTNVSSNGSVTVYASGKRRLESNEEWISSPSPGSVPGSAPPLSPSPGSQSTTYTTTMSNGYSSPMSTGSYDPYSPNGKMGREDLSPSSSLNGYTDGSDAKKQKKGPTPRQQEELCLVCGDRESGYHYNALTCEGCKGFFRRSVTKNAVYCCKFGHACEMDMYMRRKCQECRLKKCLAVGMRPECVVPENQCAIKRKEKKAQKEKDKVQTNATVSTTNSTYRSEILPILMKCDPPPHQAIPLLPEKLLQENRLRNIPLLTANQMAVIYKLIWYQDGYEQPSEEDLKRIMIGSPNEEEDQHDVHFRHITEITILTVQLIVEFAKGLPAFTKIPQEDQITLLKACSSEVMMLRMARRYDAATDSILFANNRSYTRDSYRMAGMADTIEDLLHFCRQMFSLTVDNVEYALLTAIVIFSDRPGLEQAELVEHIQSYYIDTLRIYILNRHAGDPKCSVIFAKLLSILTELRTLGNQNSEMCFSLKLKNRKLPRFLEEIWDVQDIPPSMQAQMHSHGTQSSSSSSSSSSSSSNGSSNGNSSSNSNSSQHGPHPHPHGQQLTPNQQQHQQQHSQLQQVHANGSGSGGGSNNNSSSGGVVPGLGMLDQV
# T4 sequence (Q9GSG8 whole entry): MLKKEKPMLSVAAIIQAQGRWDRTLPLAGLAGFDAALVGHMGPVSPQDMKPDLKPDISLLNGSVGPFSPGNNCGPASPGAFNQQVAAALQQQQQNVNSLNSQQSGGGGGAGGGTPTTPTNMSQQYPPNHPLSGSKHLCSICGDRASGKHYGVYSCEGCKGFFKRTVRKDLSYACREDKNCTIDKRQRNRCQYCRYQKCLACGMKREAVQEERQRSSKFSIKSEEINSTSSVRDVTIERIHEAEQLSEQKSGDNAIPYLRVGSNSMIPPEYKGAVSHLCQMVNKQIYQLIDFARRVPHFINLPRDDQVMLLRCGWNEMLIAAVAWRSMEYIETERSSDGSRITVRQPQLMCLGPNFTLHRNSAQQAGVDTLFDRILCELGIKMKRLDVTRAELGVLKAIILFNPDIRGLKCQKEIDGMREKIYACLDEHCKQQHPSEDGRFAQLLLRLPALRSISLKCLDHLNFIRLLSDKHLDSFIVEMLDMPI
# [11] = target: T5, Ecdysone receptor (Bombyx mori) (UniProt P49881); assay: as §1; assay type: cell-based
# T5 sequence (whole entry): T3 sequence (P49881 whole entry)
# [12] = target: T1, Ecdysone receptor (Drosophila melanogaster); assay: Agonist activity at ecdysone receptor in Drosophila melanogaster S2 cells at 1.33 uM after 24 hr by luciferase reporter gene assay relative to 20-hydroxyecdysone; assay type: cell-based
# [13] = target: T1, Ecdysone receptor (Drosophila melanogaster); assay: Agonist activity at ecdysone receptor in Drosophila melanogaster Kc cells at 100 uM after 24 hr by luciferase reporter gene assay relative to 20-hydroxyecdysone
# [14] = target: T1, Ecdysone receptor (Drosophila melanogaster); assay: as §2
# Ecdysone receptor [15] = target: T2, Ecdysone receptor; assay: Agonist activity at ecdysone receptor in Drosophila melanogaster B2 cells assessed as reduction in cell density
# [16] = target: T1, Ecdysone receptor (Drosophila melanogaster); assay: Agonist activity at ecdysone receptor in Drosophila melanogaster S2 cells treated with ouabain for 24 hr prior to compound addition measured after 24 hr by luciferase reporter gene assay; assay type: cell-based
# [17] = target: T1, Ecdysone receptor (Drosophila melanogaster); assay: Agonist activity at ecdysone receptor in Drosophila melanogaster S2 cells after 24 hr by luciferase reporter gene assay in presence of ouabain; assay type: cell-based
# [18] = target: T1, Ecdysone receptor (Drosophila melanogaster); assay: Agonist activity at ecdysone receptor in Drosophila melanogaster S2 cells at 50 uM after 24 hr by luciferase reporter gene assay relative to 20-hydroxyecdysone; assay type: cell-based
smiles,measurement,setting,value
CC(C)(C)N(NC(=O)c1ccc(Cl)cc1)C(=O)c1ccccc1 [HALOFENOZIDE],Efficacy,[1],57%
same,EC50,Ecdysone receptor [2],7.76 µM
same,Activity,[3],Non-toxic
same,EC50,Ecdysone receptor [4],0.0871 µM
CC(C)(C)N(NC(=O)c1ccc(Br)cc1)C(=O)c1ccccc1Cl,Efficacy,[5],68%
same,EC50,Ecdysone receptor [2],2.82 µM
same,Efficacy,[6],56%
same,EC50,Ecdysone receptor [7],6.92 µM
same,EC50,Ecdysone receptor [4],0.0339 µM
Cc1ccc(NC2CC(C)N(C(=O)c3ccc(Cl)cc3)c3ccc(C)cc32)cc1 (configuration not stated),Efficacy,[8],9%
same,EC50,Ecdysone receptor [2],> 10 µM
same,Efficacy,[9],39%
same,EC50,Ecdysone receptor [10],2.14 µM
same,pEC50,[11],inactive
Cc1cc(C)cc(C(=O)C2(NC(=O)c3ccc4c(c3C)CCCO4)CCCCC2)c1,EC50,Ecdysone receptor [2],> 1.32 µM
same,Efficacy,[12],37%
CC(C)(C)N(NC(=O)c1ccc(I)cc1)C(=O)c1ccccc1Cl,Efficacy,[5],53%
same,EC50,Ecdysone receptor [2],7.08 µM
same,EC50,Ecdysone receptor [4],0.00759 µM
Cc1ccc(C(=O)NN(C(=O)c2ccccc2Cl)C(C)(C)C)c(C)c1,Efficacy,[1],43%
same,EC50,Ecdysone receptor [2],129 µM
same,Efficacy,[13],29%
same,pEC50,[14],inactive
same,EC50,Ecdysone receptor [4],0.162 µM
CC1CC(Nc2ccc(F)cc2)c2cc(F)ccc2N1C(=O)c1ccc(Cl)cc1 (configuration not stated),Efficacy,[1],12%
same,EC50,Ecdysone receptor [2],> 100 µM
same,Efficacy,[9],70%
same,EC50,Ecdysone receptor [10],0.646 µM
CC(C)(C)N(NC(=O)c1ccccc1)C(=O)c1ccccc1 [RH-5849],Efficacy,[1],62%
same,EC50,Ecdysone receptor [2],37.2 µM
same,Activity,[3],Non-toxic
same,EC50,Ecdysone receptor [15],1.82 µM
same,EC50,Ecdysone receptor [4],0.427 µM
COc1cccc(C(=O)NN(C(=O)c2cc(C)cc(C)c2)C(C)(C)C)c1C [METHOXYFENOZIDE],Efficacy,[1],66%
same,EC50,Ecdysone receptor [2],16.6 µM
same,Activity,[16],Active
same,Activity,[3],Non-toxic
same,EC50,Ecdysone receptor [4],0.00603 µM
same,Activity,[17],Active
CCc1ccc(C(=O)NN(C(=O)c2cc(C)cc(C)c2)C(C)(C)C)cc1 [TEBUFENOZIDE],Efficacy,[8],52%
same,EC50,Ecdysone receptor [2],6.61 µM
same,Activity,[3],Non-toxic
same,EC50,Ecdysone receptor [15],0.525 µM
same,EC50,Ecdysone receptor [4],0.00123 µM
Cc1ccc(NC2CC(C)N(C(=O)c3ccc(C)cc3)c3ccc(C)cc32)cc1 (configuration not stated),Efficacy,[8],11%
same,EC50,Ecdysone receptor [2],> 10 µM
same,Efficacy,[9],26%
same,EC50,Ecdysone receptor [10],5.01 µM
same,pEC50,[11],inactive
CCOc1ccccc1C(=O)N(NC(=O)c1ccc(CC)cc1)C(C)(C)C,Efficacy,[18],2%
same,EC50,Ecdysone receptor [2],> 50.1 µM
CC(C)(C)N(NC(=O)c1c(F)cccc1F)C(=O)c1ccccc1Cl,Efficacy,[1],23%
same,Efficacy,[13],35%
same,EC50,Ecdysone receptor [7],> 100 µM
CC(=O)c1ccc(C(=O)NN(C(=O)c2ccccc2Cl)C(C)(C)C)cc1,Efficacy,[1],7%
same,Efficacy,[6],3%
same,EC50,Ecdysone receptor [7],> 100 µM
